The target of assay [1] is GST-CBP(1081-1197) bromodomain (Homo sapiens (Human), UniProt Q92793). The assay is described as follows: CBP AlphaScreen Assay. To be noted: binding to biotin-H4(1-21) Ac-K5/8/12/16. The method, then: (§1) Specific binding of the CBP or BRD4 bromodomain to the acetylated peptide derived from the H4 histone substrate (tetra acetylated H4(1-21) Ac-K5/8/12/16) was measured in absence or presence of inhibitors. The GST tagged bromodomains of CBP (1081-1197) and BRD4 (49-170) were obtained from BPS Bioscience and binding to the biotinylated H4(1-21) Ac-K5/8/12/16 (AnaSpec. 64989) was assessed via AlphaScreen technology (Perkin Elmer).
(§2) 5 nM GST-CBP(1081-1197) and 20 nM biotin-H4(1-21) Ac-K5/8/12/16 (AnaSpec. 64989) were incubated with varying concentrations of CBP inhibitors in 15 μL of buffer containing 50 mM HEPES 7.5, […], 1 mM TCEP, and 0.003% Tween-20. After 30 minutes incubation at room temperature, 15 μL of detection buffer (BPS Bio. 33006) containing 7 μg/mL of Glutathione AlphaLisa acceptor beads (Perkin Elmer AL109) and 14 μg/mL of Streptavidin donor beads (Perkin Elmer 676002) was then added to the previous mixture. The reaction was incubated for an additional 2 hours at room temperature, and the AlphaScreen signal was quantified using the Envision Multilabel plate reader. As negative control, GST-CBP(1081-1197) was incubated with the non-acetylated biotin-H4(1-21) peptide(AnaSpec. 62555) and in presence of 0.25% of final DMSO concentration.
(§3) the binding of 2.5 nM of BRD4(49-170) to 10 nM biotin-H4(1-21) Ac-K5/8/12/16 (AnaSpec. 64989) was assessed following the same procedure described for the CBP assay. The standard dose response curves were fitted by Genedata Screener software using the variable-slope model: Signal=Signalnegative control+(SignalDMSO control−Signalnegative control)/(1+(IC50/Dose)^Hill slope).
(§4) Only Signal and Dose in the equation were treated as know values.
On the technique in general: Alpha assays give light when donor and acceptor beads are brought close together.

A further assay has as its target BRD4(49-170) bromodomain (Homo sapiens (Human), UniProt O60885). Description: BRD4 AlphaScreen Assay. Particulars: binding to biotin-H4(1-21) Ac-K5/8/12/16. The method, then:
as §1, §2, §3, §4

Chain of GST-CBP(1081-1197) bromodomain (Q92793 1081-1197): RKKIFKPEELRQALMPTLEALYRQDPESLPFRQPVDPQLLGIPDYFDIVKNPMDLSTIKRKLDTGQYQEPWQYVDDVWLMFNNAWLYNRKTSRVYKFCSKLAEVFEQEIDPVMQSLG

For orientation: IC50 means the concentration that inhibits the measured activity by half. Lower therefore signals higher potency. Consider `CC1C(=O)N(C)Cc2c(-c3c(F)ccc4cc(C5CCOCC5)ncc34)nc(C3CCOCC3)n21` (single isomer, unassigned) [Example 34b, 1-(7-Fluoro-3-(tetrahydro-2H-pyran-4-yl)isoquinolin-8-yl)-5,7-dimethyl-3-(tetrahydro-2H-pyran-4-yl)-7,8-dihydroimidazo[1,5-a]pyrazin-6(5H)-one], for which the IC50 in assay [1] was found to be 8 nM; on BRD4(49-170) bromodomain, 1230 nM.
In the same order, the values of `CC1C(=O)N(C)Cc2c(-c3c(F)ccc4nc(-c5cnn(C)c5)c(C(F)F)cc34)nc(C3CCOCC3)n21` (single isomer, unassigned) [Example 36a, 1-(3-(Difluoromethyl)-6-fluoro-2-(1-methyl-1H-pyrazol-4-yl)quinolin-5-yl)-5,7-dimethyl-3-(tetrahydro-2H-pyran-4-yl)-7,8-dihydroimidazo[1,5-a]pyrazin-6(5H)-one] are 2 nM and 624 nM.
As to `CC1C(=O)N(C)Cc2c(-c3c(F)ccc4nc(-c5cnn(C)c5)c(C(F)F)cc34)nc(C3CCOCC3)n21` (single isomer, unassigned) [Example 36b, 1-(3-(Difluoromethyl)-6-fluoro-2-(1-methyl-1H-pyrazol-4-yl)quinolin-5-yl)-5,7-dimethyl-3-(tetrahydro-2H-pyran-4-yl)-7,8-dihydroimidazo[1,5-a]pyrazin-6(5H)-one], the IC50 in assay [1] is 144 nM; on BRD4(49-170) bromodomain it was ≥ 25000 nM.
In the same order, the values of `Cc1ncc(-c2cc3ccc(F)c(-c4nc(C5CCOCC5)n5c4CN(C)C(=O)C5C)c3cn2)s1` (single isomer, unassigned) [Example 37a, 1-(7-Fluoro-3-(2-methylthiazol-5-yl)isoquinolin-8-yl)-5,7-dimethyl-3-(tetrahydro-2H-pyran-4-yl)-7,8-dihydroimidazo[1,5-a]pyrazin-6(5H)-one] are 1 nM and 215 nM.
For the compound `Cc1ncc(-c2cc3ccc(F)c(-c4nc(C5CCOCC5)n5c4CN(C)C(=O)C5C)c3cn2)s1` (single isomer, unassigned) [Example 37b, 1-(7-Fluoro-3-(2-methylthiazol-5-yl)isoquinolin-8-yl)-5,7-dimethyl-3-(tetrahydro-2H-pyran-4-yl)-7,8-dihydroimidazo[1,5-a]pyrazin-6(5H)-one], the IC50 in assay [1] was 647 nM; at BRD4(49-170) bromodomain, ≥ 25000 nM.
For the compound `Cc1ncc(-c2cc3ccc(C)c(-c4nc(C5CCOCC5)n5c4CN(C)C(=O)C5C)c3cn2)s1` (single isomer, unassigned) [Example 38a], the half-maximal inhibitory concentration (IC50) in assay [1] turned out to be 8 nM; on BRD4(49-170) bromodomain, 1810 nM.
On to `Cc1ncc(-c2cc3ccc(C)c(-c4nc(C5CCOCC5)n5c4CN(C)C(=O)C5C)c3cn2)s1` (single isomer, unassigned) [Example 38b], for which the IC50 in assay [1] worked out at 302 nM; on BRD4(49-170) bromodomain it was 4860 nM.
Turning to `CC1C(=O)N(C)Cc2c(-c3cccc4cc(-c5noc(=O)[nH]5)ncc34)nc(C3CC3)n21` (single isomer, unassigned) [Example 44a, 3-(8-(3-Cyclopropyl-5,7-dimethyl-6-oxo-5,6,7,8-tetrahydroimidazo[1,5-a]pyrazin-1-yl)isoquinolin-3-yl)-1,2,4-oxadiazol-5(4H)-one], the figures for the IC50 (in assay [1]; on BRD4(49-170) bromodomain) were 68 nM and > 25000 nM, respectively.
For the compound `CC1C(=O)N(C)Cc2c(-c3cccc4cc(-c5noc(=O)[nH]5)ncc34)nc(C3CC3)n21` (single isomer, unassigned) [Example 44b, 3-(8-(3-Cyclopropyl-5,7-dimethyl-6-oxo-5,6,7,8-tetrahydroimidazo[1,5-a]pyrazin-1-yl)isoquinolin-3-yl)-1,2,4-oxadiazol-5(4H)-one], the IC50 in assay [1] is 1 nM; at BRD4(49-170) bromodomain, 1460 nM.
Regarding `CC1C(=O)N(C)Cc2c(-c3cccc4nc(-c5noc(=O)[nH]5)c(C(F)F)cc34)nc(C3CC3)n21` (single isomer, unassigned) [Example 45a, 3-(5-(3-Cyclopropyl-5,7-dimethyl-6-oxo-5,6,7,8-tetrahydroimidazo[1,5-a]pyrazin-1-yl)-3-(difluoromethyl)quinolin-2-yl)-1,2,4-oxadiazol-5(4H)-one], the IC50 in assay [1] was 1 nM; on BRD4(49-170) bromodomain, 112 nM.
The matching figures for `CC1C(=O)N(C)Cc2c(-c3cccc4nc(-c5noc(=O)[nH]5)c(C(F)F)cc34)nc(C3CC3)n21` (single isomer, unassigned) [Example 45b, 3-(5-(3-Cyclopropyl-5,7-dimethyl-6-oxo-5,6,7,8-tetrahydroimidazo[1,5-a]pyrazin-1-yl)-3-(difluoromethyl)quinolin-2-yl)-1,2,4-oxadiazol-5(4H)-one]: 29 nM and 5400 nM.
On to `CC1C(=O)N(C)Cc2c(-c3cccc4nc(-c5cnn(C)c5)c(C#N)cc34)nc(C3CC3)n21` (single isomer, unassigned) [Example 56a, 5-(3-cyclopropyl-5,7-dimethyl-6-oxo-5,6,7,8-tetrahydroimidazo[1,5-a]pyrazin-1-yl)-2-(1-methyl-1H-pyrazol-4-yl)quinoline-3-carbonitrile], for which the half-inhibitory concentration (IC50) in assay [1] is 424 nM; on BRD4(49-170) bromodomain it was 25000 nM.
The matching figures for `CC1C(=O)N(C)Cc2c(-c3cccc4nc(-c5cnn(C)c5)c(C#N)cc34)nc(C3CC3)n21` (single isomer, unassigned) [Example 56b, 5-(3-cyclopropyl-5,7-dimethyl-6-oxo-5,6,7,8-tetrahydroimidazo[1,5-a]pyrazin-1-yl)-2-(1-methyl-1H-pyrazol-4-yl)quinoline-3-carbonitrile]: 1 nM and 132 nM.
The matching figures for `CCC1C(=O)N(C)Cc2c(-c3cccc4nc(-c5cnn(C)c5)c(C(F)F)cc34)nc(C3CCOCC3)n21` (single isomer, unassigned) [Example 64a, 1-(3-(difluoromethyl)-2-(1-methyl-1H-pyrazol-4-yl)quinolin-5-yl)-5-ethyl-7-methyl-3-(tetrahydro-2H-pyran-4-yl)-7,8-dihydroimidazo[1,5-a] pyrazin-6(5H)-one]: 2430 nM and 25000 nM.
Turning to `CCC1C(=O)N(C)Cc2c(-c3cccc4nc(-c5cnn(C)c5)c(C(F)F)cc34)nc(C3CCOCC3)n21` (single isomer, unassigned) [Example 64b, 1-(3-(difluoromethyl)-2-(1-methyl-1H-pyrazol-4-yl)quinolin-5-yl)-5-ethyl-7-methyl-3-(tetrahydro-2H-pyran-4-yl)-7,8-dihydroimidazo[1,5-a] pyrazin-6(5H)-one], the values for the 50% inhibitory concentration (IC50) (in assay [1]; at BRD4(49-170) bromodomain) were 46 nM and 729 nM, respectively.
The matching figures for `CC1C(=O)N(C)Cc2c(-c3c(F)ccc4cc(-c5ccn(C)n5)ncc34)nc(C3CCOCC3)n21` (single isomer, unassigned) [Example 90a, 1-(7-fluoro-3-(1-methyl-1H-pyrazol-3-yl)isoquinolin-8-yl)-5,7-dimethyl-3-(tetrahydro-2H-pyran-4-yl)-7,8-dihydroimidazo[1,5a] pyrazin-6(5H)-one]: 1000 nM and 25000 nM.
Turning to `CC1C(=O)N(C)Cc2c(-c3c(F)ccc4cc(-c5ccn(C)n5)ncc34)nc(C3CCOCC3)n21` (single isomer, unassigned) [Example 90b, 1-(7-fluoro-3-(1-methyl-1H-pyrazol-3-yl)isoquinolin-8-yl)-5,7-dimethyl-3-(tetrahydro-2H-pyran-4-yl)-7,8-dihydroimidazo[1,5a] pyrazin-6(5H)-one], the IC50 in assay [1] was determined as 4 nM; on BRD4(49-170) bromodomain it was 879 nM.
